Laboratory results taken from article PMC3835519 (Aquatic toxicology (Amsterdam, Netherlands), 2012).
Where two headings read alike, the source gives them in different places.

Experiments:
[1] = tested on: purified porcine esterases; conditions: ref Roberts et al., 2011a, b; cited from earlier work
[2] = format: in vitro ADME, Chelydra serpentina serpentina; conditions: snapping turtle S9; 120 min; 1 mg protein
[3] = format: in vitro ADME, Cyprinus carpio; conditions: S9 of smaller (likely younger, juvenile) carp population; mean ± SD, N = 3
[4] = format: in vitro ADME, Mus musculus
[5] = format: in vitro ADME, Pimephales promelas; conditions: all three fathead minnow subcellular fractions; significant = three times the background

Compound | metabolism by esterases [1] | metabolism of TBB (loss of parent vs heat-inactivated control) [2] | metabolic rate of TBB [3] [pmoles TBB mg^−1 min^−1] | difference in TBB metabolism between age classes ([4]; S9, 4-month-old vs 2-month-old male mice) | TBMB metabolite peaks in chromatograms of incubations ([4]; mouse incubations, significant = three times the background) | TBMB metabolite peaks in chromatograms of incubations [5]
CCCCC(CC)COC(=O)c1cc(Br)c(Br)c(Br)c1Br (stereo not drawn) [TBB, 2-ethylhexyl 2,3,4,5-tetrabromobenzoate] | rapidly metabolize | not metabolized | 1.30 ± 0.62 | No difference | – | –
COC(=O)c1cc(Br)c(Br)c(Br)c1Br [TBMB, 2,3,4,5-tetrabromomethylbenzoate] | – | – | – | – | not significant | Significant peaks
